Legend:
[1] = target: T1, JARID1B (Homo sapiens, UniProt Q9UGL1); assay: FLAG-JARID1B histone demethylase assay with AlphaScreen detection (HTS and dose response); type: biochemical; conditions: for Assay − Artifact Signal (percent): assay signal minus artifact signal; for inhibition at 20 µM: high-throughput screen, compound 20 μM, standard demethylase conditions (10 μM α-KG, 50 μM Fe (II)), read-out: Inhibitory effect (percent); for Assay Signal (percent) / Validation result of HTS active: effect of the compound in the JARID1B AlphaScreen demethylase assay: validation of HTS actives; for Assay Signal (percent): effect of compound in JARID1B AlphaScreen assay; for Validation result of HTS active: effect of the compound in the JARID1B AlphaScreen demethylase assay: total signal before subtraction of artifact signal;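 for Assay Signal (percent): compound tested at 20 µM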;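 for Assay − Artifact Signal (percent): compound tested at 20 µM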;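 for all read-outs here: FLAG-tagged JARID1B at 4 nM acting on a biotinylated H3K4me3 peptide, demethylation read by AlphaScreen luminescence, with hits checked against bio-H3K4me2 without enzyme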
T1 construct: The FLAG tagged full length JARID1B enzyme was expressed in Sf21 insect cells using FLAG-JARID1B baculoviruses; FLAG (N); made in house; host or cells: Sf21 insect cells (baculovirus)
T1 sequence (Q9UGL1 whole entry): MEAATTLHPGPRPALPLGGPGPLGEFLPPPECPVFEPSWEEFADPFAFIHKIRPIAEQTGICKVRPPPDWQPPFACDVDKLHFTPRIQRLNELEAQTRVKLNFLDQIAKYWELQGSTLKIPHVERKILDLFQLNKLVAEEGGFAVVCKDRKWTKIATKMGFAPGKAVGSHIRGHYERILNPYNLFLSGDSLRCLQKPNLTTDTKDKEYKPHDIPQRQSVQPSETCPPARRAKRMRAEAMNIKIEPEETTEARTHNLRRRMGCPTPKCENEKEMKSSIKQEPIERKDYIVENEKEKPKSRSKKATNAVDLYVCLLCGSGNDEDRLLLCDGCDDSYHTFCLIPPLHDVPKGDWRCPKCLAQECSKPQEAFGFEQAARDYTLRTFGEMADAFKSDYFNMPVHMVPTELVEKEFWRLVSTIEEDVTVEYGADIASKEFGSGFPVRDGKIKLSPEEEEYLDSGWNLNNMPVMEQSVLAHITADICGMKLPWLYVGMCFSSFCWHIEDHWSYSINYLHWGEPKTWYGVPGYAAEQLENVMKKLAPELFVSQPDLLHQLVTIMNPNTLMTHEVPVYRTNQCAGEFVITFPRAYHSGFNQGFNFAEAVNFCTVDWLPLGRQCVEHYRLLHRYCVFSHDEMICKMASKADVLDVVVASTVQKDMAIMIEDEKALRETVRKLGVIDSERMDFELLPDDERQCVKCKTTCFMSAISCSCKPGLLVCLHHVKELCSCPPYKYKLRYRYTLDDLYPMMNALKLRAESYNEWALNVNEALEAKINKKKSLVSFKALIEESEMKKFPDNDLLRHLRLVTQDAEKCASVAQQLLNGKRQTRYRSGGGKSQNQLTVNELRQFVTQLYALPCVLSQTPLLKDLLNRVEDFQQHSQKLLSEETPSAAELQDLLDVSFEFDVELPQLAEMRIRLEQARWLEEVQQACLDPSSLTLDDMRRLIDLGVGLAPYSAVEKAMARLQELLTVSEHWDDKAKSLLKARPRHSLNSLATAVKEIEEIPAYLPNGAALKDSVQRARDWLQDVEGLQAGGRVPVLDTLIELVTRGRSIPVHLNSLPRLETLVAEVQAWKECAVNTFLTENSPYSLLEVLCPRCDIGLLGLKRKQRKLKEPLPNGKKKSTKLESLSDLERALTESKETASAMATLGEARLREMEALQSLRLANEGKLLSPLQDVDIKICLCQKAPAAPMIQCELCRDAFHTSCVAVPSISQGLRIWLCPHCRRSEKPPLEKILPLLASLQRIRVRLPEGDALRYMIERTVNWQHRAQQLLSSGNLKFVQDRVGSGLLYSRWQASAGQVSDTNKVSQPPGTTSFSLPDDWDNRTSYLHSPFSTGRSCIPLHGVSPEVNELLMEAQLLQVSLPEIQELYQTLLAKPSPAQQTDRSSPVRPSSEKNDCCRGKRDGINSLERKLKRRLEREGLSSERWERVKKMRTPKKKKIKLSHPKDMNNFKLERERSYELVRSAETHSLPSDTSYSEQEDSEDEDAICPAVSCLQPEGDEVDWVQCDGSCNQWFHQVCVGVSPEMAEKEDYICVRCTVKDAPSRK

[2] = AlphaScreen counterscreen against bio-H3K4me2 peptide in the absence of enzyme (artifact signal); conditions: for Artifact Signal (percent): effect of the compound when incubated with bio-H3K4me2 peptide (counterscreen, no enzyme); for Artifact signal: effect of the compound when it is incubated with bio-H3K4me2 peptide: counterscreen, no enzyme;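 for all read-outs here: counterscreen run without enzyme against bio-H3K4me2 peptide to remove false positive hits from the JARID1 demethylase AlphaScreen screen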

| Structure (SMILES) | Assay − Artifact Signal (percent) [1] [%] | inhibition at 20 µM [1] [%] | Assay Signal (percent) [1] [%] | Artifact Signal (percent) [2] [%] | Validation result of HTS active: effect of the compound in the JARID1B AlphaScreen demethylase assay [1] | Artifact signal: effect of the compound when it is incubated with bio-H3K4me2 peptide [2] |
| --- | --- | --- | --- | --- | --- | --- |
| N#CC(=Cc1cc(O)c(O)c(O)c1)C(N)=C(C#N)C#N (single isomer, unassigned) [YU154835, TYRPHOSTIN 51, reference compound] | 23.04 | 69.7 | 46.05 | 23.01 | – | – |
| C=NC(C(=O)N[C@H]1C(=O)N2C1SC(C)(C)C2C(=O)O)c1ccccc1 (stereo in doubt) [YU034263, METAMPICILLIN SODIUM, reference compound] | 24.14 | 95.6 | 24.27 | 0.13 | 3.14 | 0.44 |
| O=C(OC[C@H]1O[C@@H](OC(=O)c2cc(O)c(O)c(OC(=O)c3cc(O)c(O)c(O)c3)c2)[C@H](OC(=O)c2cc(O)c(O)c(OC(=O)c3cc(O)c(O)c(O)c3)c2)[C@@H](OC(=O)c2cc(O)c(O)c(OC(=O)c3cc(O)c(O)c(O)c3)c2)[C@@H]1OC(=O)c1cc(O)c(O)c(OC(=O)c2cc(O)c(O)c(O)c2)c1)c1cc(O)c(O)c(OC(=O)c2cc(O)c(O)c(O)c2)c1 (stereo in doubt) [YU034398, TANNIC ACID, reference compound] | – | 105 | – | – | 104.83 | 99.54 |
| COc1cccc2c1C(=O)c1c(O)c3c(c(O)c1C2=O)C[C@@](O)(C(=O)CO)C[C@@H]3O[C@H]1C[C@H](N)[C@@H](O)[C@H](C)O1.Cl (stereo in doubt) [YU039604, EPIRUBICIN HYDROCHLORIDE, reference compound] | – | 81.9 | – | – | 10.74 | 3.76 |
| COc1cccc2c1C(=O)c1c(O)c3c(c(O)c1C2=O)C[C@@](O)(C(=O)CO)C[C@@H]3O[C@H]1C[C@H](N)[C@H](O)[C@H](C)O1.Cl (stereo in doubt) [YU039629, DOXORUBICIN HYDROCHLORIDE, reference compound] | – | 80.3 | – | – | 8.94 | 3.92 |
| CC(=O)[C@]1(O)Cc2c(O)c3c(c(O)c2[C@@H](O[C@H]2C[C@H](N)[C@H](O)[C@H](C)O2)C1)C(=O)c1ccccc1C3=O.Cl (stereo in doubt) [YU040321, IDARUBICIN HCl, reference compound] | – | 92.3 | – | – | −11.32 | −9.53 |
| O=C(OC[C@H]1O[C@@H](OC(=O)c2cc(O)c(O)c(OC(=O)c3cc(O)c(O)c(O)c3)c2)[C@H](OC(=O)c2cc(O)c(O)c(OC(=O)c3cc(O)c(O)c(O)c3)c2)[C@@H](OC(=O)c2cc(O)c(O)c(OC(=O)c3cc(O)c(O)c(O)c3)c2)[C@@H]1OC(=O)c1cc(O)c(O)c(OC(=O)c2cc(O)c(O)c(O)c2)c1)c1cc(O)c(O)c(OC(=O)c2cc(O)c(O)c(O)c2)c1 (stereo in doubt) [YU153507, TANNIC ACID, reference compound] | – | – | – | – | 105.15 | 99.80 |

Continued, values first:

| Assay − Artifact Signal (percent) [1] [%] | inhibition at 20 µM [1] [%] | Assay Signal (percent) [1] [%] | Artifact Signal (percent) [2] [%] | Validation result of HTS active: effect of the compound in the JARID1B AlphaScreen demethylase assay [1] | Artifact signal: effect of the compound when it is incubated with bio-H3K4me2 peptide [2] | Structure (SMILES) |
| --- | --- | --- | --- | --- | --- | --- |
| 41.45 | 43.6 | 35.57 | −5.88 | – | – | Cc1ccc(S(=O)(=O)C=CC#N)cc1 (single isomer, unassigned) [YU154885, BAY 11-7082, reference compound] |
| 43.75 | 48.7 | 51.64 | 7.90 | – | – | COC1=CC(=O)C(O)=CC1=CC=Cc1ccccc1 (single isomer, unassigned) [YU155007, OBTUSAQUINONE, reference compound] |
| – | 67.3 | – | −1.92 | – | – | O=C(O)C=Cc1ccc(O)c(O)c1 (single isomer, unassigned) [YU155280, CAFFEIC ACID, reference compound] |

Reference: US20150272939A1, “Identification of Small Molecule Inhibitors of Jumonji AT-Rich Interactive Domain 1A (JARID1A) and 1B (JARID1B) Histone Demethylase” (Yale University, priority 2012, published 2015)
